Read-outs that look alike come from different tables or passages of the source.
Tests used:
Assay in all cases: Kinetic assays of purified pNB esterase on ester substrates in DMF/PIPES
Type in all cases: biochemical
[1] = target: T1, Bacillus subtilis para-nitrobenzyl esterase variant 1-1H9 (incl. Tyr 370 Phe), SEQ. ID. NO. 4 (Bacillus subtilis, UniProt P37967, form not given/H322R/Y370F); settings: 0.1 M PIPES pH 7.0, 30° C.
Procedure: (§1) FIG. 8a is a plot of variant and wild type pNB esterase reaction kinetics on pNPA in aqueous buffer (0% dimethylformamide). Enzymes were added to a 30° C. reaction solution consisting of 0.1 M PIPES (pH 7.0) and varying concentrations of pNPA.
(§2) FIG. 8b is a plot of variant and wild type pNB esterase reaction kinetics on pNPA in 15% DMF. Enzymes were added to a 30° C. reaction solution consisting of 0.1 M PIPES (pH 7.0), 15% DMF, and varying concentrations of pNPA.
(§3) FIG. 8c is a plot of variant and wild type pNB esterase reaction kinetics on pNPA in 30% DMF. Enzyme were added to a 30° C. reaction solution consisting of 0.1 M PIPES (pH 7.0), 30% DMF, and varying concentrations of pNPA.
(§4) FIG. 9a is a plot of variant wild type pNB esterase kinetics on LCN-pNP in 1% DMF. Enzymes listed were added to a 30° C. reaction solution consisting of 0.1 M PIPES (pH 7.0), 1% DMF, and varying concentrations of LCN-pNP.
(§5) FIG. 9b is a plot of variant and wild type pNB esterase reaction kinetics on LCN-pNP in 15% DMF. Enzymes were added to a 30° C. reaction solution consisting of 0.1 M PIPES (pH 7.0), 15% DMF, and varying concentrations of LCN-pNP.
(§6) FIG. 9c is a plot of variant and wild type pNB esterase reaction kinetics on LCN-pNP in 30% DMF. Enzymes were added to a 30° C. reaction solution consisting of 0.1 M PIPES (pH 7.0), 30% DMF, and varying concentrations of LCN-pNP.
(§7) FIG. 10a is a plot of variant and wild type pNB esterase reaction kinetics on LCN-pNB in 1% DMF. Enzymes were added to a 30° C. reaction solution consisting of 0.1 M PIPES (pH 7.0), 1% DMF, and varying concentrations of LCN-pNB.
(§8) FIG. 10b is a plot of variant and wild type pNB esterase reaction kinetics on LCN-pNB in 15% DMF. Enzyme were added to a 30° C. reaction solution consisting of 0.1 M PIPES (pH 7.0), 15% DMF, and varying concentrations of LCN-pNB.
Bacteria expressing seven pNB esterases, O-WT (SEQ. ID. NO. 2), 1-1H9, 2-19E10, 3-10C4, 4-38B9, 4-43E7, and 4-54B9, were grown in on cultures, and the enzymes were purified. These purified enzymes were assayed for their ability to hydrolyze the different ester substrates in the presence of various concentrations of DMF.
(§9) Kinetic assays were performed on three substrates: pNPA, LCN-pNP, and p-nitrobenzyl loracarbef nucleus (LCN-pNB). For pNPA and LCN-pNP substrates, final concentrations varying from 0.0625 mM to 16 mM and 0, 15, and 30% DMF in 0.1 M PIPES (pH 7.0) were combined with equal volumes of enzyme samples. These samples were mixed simultaneously in a 96 well plate and monitored with the 96 well plate reader. The absorbance values were recorded, linearly regressed, and then used for calculating kinetic parameters. For the LCN-pNB substrate, final concentrations varying from 0.0156 mM to 8.0 mM and 0, 15 and 30% DMF in PIPES (pH 7.0) were combined with enzyme samples in a quartz cuvette and were measured in a spectrophotometer at 289 nm. All assays were measured in triplicate.

[2] = target: Bacillus subtilis para-nitrobenzyl esterase (pNB esterase), wild type 0-WT, SEQ. ID. NO. 2 (Bacillus subtilis, UniProt P37967); settings: 0.1 M PIPES pH 7.0, 30° C.
Sequence of Bacillus subtilis para-nitrobenzyl esterase (pNB esterase), wild type 0-WT, SEQ. ID. NO. 2 (P37967 whole entry K23L/S59P/K95Q/N150D/S230A/G242S/K246R/S251A/A291S/V343A/K390E/L463V): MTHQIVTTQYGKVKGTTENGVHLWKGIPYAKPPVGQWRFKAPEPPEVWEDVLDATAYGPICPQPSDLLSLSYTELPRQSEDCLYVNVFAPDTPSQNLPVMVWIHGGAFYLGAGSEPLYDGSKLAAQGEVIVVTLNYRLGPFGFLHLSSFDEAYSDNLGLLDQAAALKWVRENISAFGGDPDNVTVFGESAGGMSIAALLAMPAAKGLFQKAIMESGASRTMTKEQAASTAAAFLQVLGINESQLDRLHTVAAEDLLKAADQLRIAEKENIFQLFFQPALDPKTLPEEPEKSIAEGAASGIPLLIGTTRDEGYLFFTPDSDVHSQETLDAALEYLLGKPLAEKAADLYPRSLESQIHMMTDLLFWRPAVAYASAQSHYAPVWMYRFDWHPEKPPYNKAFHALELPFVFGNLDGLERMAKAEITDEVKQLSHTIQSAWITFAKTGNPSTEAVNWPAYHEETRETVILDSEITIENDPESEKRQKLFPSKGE
Procedure: as §1, §2, §3, §4, §5, §6, §7, §8
(§10) Bacteria expressing seven pNB esterases, O-WT (SEQ. ID. NO. 2), 1-1H9, 2-19E10, 3-10C4, 4-38B9, 4-43E7, and 4-54B9, were grown in on cultures, and the enzymes were purified. These purified enzymes were assayed for their ability to hydrolyze the different ester substrates in the presence of various concentrations of DMF. FIGS. 8a, b and c show the specific reaction rates on pNPA as a function of pNPA substrate concentration for this series of evolved variants from the four generations of mutagenesis and screening. […] The wild type enzyme outperforms 1-1H9 in purely aqueous buffer (FIG. 8a). The actual screening, however, was performed in the presence of DMF, and in 15 and 30% DMF, 1-1H9 has higher specific activity towards pNPA than wild type (FIGS. 8b and 8c). Similar trends are seen for the remaining variants assayed on this substrate. […] In 30% DMF, wild type drops still further relative to the pNB esterase variants. Variants 4-38B9 and 4-43E7, presumably by virtue of having been screened in DMF for four rounds of mutagenesis, are the best performers in 30% DMF.
(§11) DMF dramatically increases KM while also decreasing kcat. For the LCN substrates, the mutations accumulated during directed evolution mitigate the increased KM. […] At substrate concentrations […], increased specific activity will result mainly from improvements in kcat. These improvements are the most useful for enzymes intended to be used for transformations in high substrate concentrations.
as §9, with “For the LCN-pNB substrate, final concentrations varying from 0.0156 mM to 8.0 mM and 0, 15 and 30% DMF in PIPES (pH 7.0) were combined with enzyme samples in a quartz cuvette and were measured in a spectrophotometer at 289 nm. All assays were measured in triplicate.” left out

[3] = target: Bacillus subtilis para-nitrobenzyl esterase variant 2-19E10 (1-1H9 substitutions plus Met 358 Val), SEQ. ID. NO. 6 (Bacillus subtilis, UniProt P37967, form not given/H322R/M358V/Y370F); settings: 0.1 M PIPES pH 7.0, 30° C.
Sequence of Bacillus subtilis para-nitrobenzyl esterase variant 2-19E10 (1-1H9 substitutions plus Met 358 Val), SEQ. ID. NO. 6 (P37967 whole entry K23L/S59P/K95Q/N150D/S230A/G242S/K246R/S251A/A291S/H322R/V343A/M358V/Y370F/K390E/L463V, form open): as the sequence (P37967 whole entry K23L/S59P/K95Q/N150D/S230A/G242S/K246R/S251A/A291S/V343A/K390E/L463V) above, with H322R, M358V, Y370F counted along it
Procedure: as §1, §2, §3, §4, §5, §6, §7, §8, §10, §11
as §9, with “For the LCN-pNB substrate, final concentrations varying from 0.0156 mM to 8.0 mM and 0, 15 and 30% DMF in PIPES (pH 7.0) were combined with enzyme samples in a quartz cuvette and were measured in a spectrophotometer at 289 nm. All assays were measured in triplicate.” left out

[4] = target: Bacillus subtilis para-nitrobenzyl esterase variant 3-10C4 (2-19E10 plus Leu 144 Met), SEQ. ID. NO. 8 (Bacillus subtilis, UniProt P37967, form not given/H322R/L144M/M358V/Y370F); settings: 0.1 M PIPES pH 7.0, 30° C.
Sequence of Bacillus subtilis para-nitrobenzyl esterase variant 3-10C4 (2-19E10 plus Leu 144 Met), SEQ. ID. NO. 8 (P37967 other isoform, or with tags, fused parts or gaps with the stated changes, form open): as the sequence (P37967 whole entry K23L/S59P/K95Q/N150D/S230A/G242S/K246R/S251A/A291S/V343A/K390E/L463V) above, with L144M, H322R, M358V, Y370F counted along it
Procedure: as §1, §2, §3, §4, §5, §6, §7, §8, §10, §11
as §9, with “For the LCN-pNB substrate, final concentrations varying from 0.0156 mM to 8.0 mM and 0, 15 and 30% DMF in PIPES (pH 7.0) were combined with enzyme samples in a quartz cuvette and were measured in a spectrophotometer at 289 nm. All assays were measured in triplicate.” left out

[5] = target: Bacillus subtilis para-nitrobenzyl esterase variant 4-38B9 (3-10C4 plus Ile 60 Val), SEQ. ID. NO. 10 (Bacillus subtilis, UniProt P37967, form not given/H322R/I60V/L144M/M358V/Y370F); settings: 0.1 M PIPES pH 7.0, 30° C.
Sequence of Bacillus subtilis para-nitrobenzyl esterase variant 4-38B9 (3-10C4 plus Ile 60 Val), SEQ. ID. NO. 10 (P37967 other isoform, or with tags, fused parts or gaps with the stated changes, form open): as the sequence (P37967 whole entry K23L/S59P/K95Q/N150D/S230A/G242S/K246R/S251A/A291S/V343A/K390E/L463V) above, with I60V, L144M, H322R, M358V, Y370F counted along it
Procedure: as §1, §2, §3, §4, §5, §6, §7, §8, §10, §11
as §9, with “For the LCN-pNB substrate, final concentrations varying from 0.0156 mM to 8.0 mM and 0, 15 and 30% DMF in PIPES (pH 7.0) were combined with enzyme samples in a quartz cuvette and were measured in a spectrophotometer at 289 nm. All assays were measured in triplicate.” left out

[6] = target: Bacillus subtilis para-nitrobenzyl esterase variant 4-43E7 (3-10C4 plus Leu 334 Val and one more substitution), SEQ. ID. NO. 12 (Bacillus subtilis, UniProt P37967, form not given/H322R/L144M/L334V/M358V/S94G/Y370F); settings: 0.1 M PIPES pH 7.0, 30° C.
Sequence of Bacillus subtilis para-nitrobenzyl esterase variant 4-43E7 (3-10C4 plus Leu 334 Val and one more substitution), SEQ. ID. NO. 12 (P37967 other isoform, or with tags, fused parts or gaps with the stated changes, form open): as the sequence (P37967 whole entry K23L/S59P/K95Q/N150D/S230A/G242S/K246R/S251A/A291S/V343A/K390E/L463V) above, with S94G, L144M, H322R, L334V, M358V, Y370F counted along it
Procedure: as §1, §2, §3, §4, §5, §6, §7, §8, §10, §11
as §9, with “For the LCN-pNB substrate, final concentrations varying from 0.0156 mM to 8.0 mM and 0, 15 and 30% DMF in PIPES (pH 7.0) were combined with enzyme samples in a quartz cuvette and were measured in a spectrophotometer at 289 nm. All assays were measured in triplicate.” left out

[7] = target: Bacillus subtilis para-nitrobenzyl esterase variant 4-54B9 (3-10C4 plus Leu 334 Ser and one more substitution), SEQ. ID. NO. 14 (Bacillus subtilis, UniProt P37967, form not given/H322R/K267R/L144M/L334S/M358V/Y370F); settings: for kcat (p-nitrobenzyl loracarbef nucleus) / Km / kcat (p-nitrophenyl loracarbef nucleus): 0.1 M PIPES pH 7.0, 30° C.
Sequence of Bacillus subtilis para-nitrobenzyl esterase variant 4-54B9 (3-10C4 plus Leu 334 Ser and one more substitution), SEQ. ID. NO. 14 (P37967 other isoform, or with tags, fused parts or gaps with the stated changes, form open): as the sequence (P37967 whole entry K23L/S59P/K95Q/N150D/S230A/G242S/K246R/S251A/A291S/V343A/K390E/L463V) above, with L144M, K267R, H322R, L334S, M358V, Y370F counted along it
Procedure: as §1, §2, §3, §4, §5, §6, §7, §8, §10, §11
as §9, with “For the LCN-pNB substrate, final concentrations varying from 0.0156 mM to 8.0 mM and 0, 15 and 30% DMF in PIPES (pH 7.0) were combined with enzyme samples in a quartz cuvette and were measured in a spectrophotometer at 289 nm. All assays were measured in triplicate.” left out

[8] = target: T1, Bacillus subtilis para-nitrobenzyl esterase variant 1-1H9 (incl. Tyr 370 Phe), SEQ. ID. NO. 4; settings: 0% DMF, 0.1 M PIPES pH 7.0, 30° C.
[9] = 15% DMF, read-out: Km (p-nitrobenzyl loracarbef nucleus)
[10] = 0% DMF, read-out: Km (p-nitrobenzyl loracarbef nucleus)
[11] = 15% DMF, on LCN-pNB, relative to wild type
[12] = 15% DMF, read-out: Km (p-nitrophenyl loracarbef nucleus)
[13] = 30% DMF, read-out: Km (p-nitrophenyl loracarbef nucleus)
[14] = 0% DMF, read-out: Km (p-nitrophenyl loracarbef nucleus)

T1 sequence (P37967 whole entry K23L/S59P/K95Q/N150D/S230A/G242S/K246R/S251A/A291S/H322R/V343A/Y370F/K390E/L463V, form open): as the sequence (P37967 whole entry K23L/S59P/K95Q/N150D/S230A/G242S/K246R/S251A/A291S/V343A/K390E/L463V) above, with H322R, Y370F counted along it

Compound: NC1C(=O)N2C(C(=O)OCc3ccc([N+](=O)[O-])cc3)=C(Cl)CCC12 (stereo not drawn) [p-nitrobenzyl loracarbef nucleus]
- kcat (p-nitrobenzyl loracarbef nucleus) ([1]; 15% DMF): 0.69
- Km [1, 9]: 850 µM
- kcat (p-nitrobenzyl loracarbef nucleus) ([2]; 0% DMF): 1.64
- Km [2, 10]: 40 µM
- kcat (p-nitrobenzyl loracarbef nucleus) ([2]; 15% DMF): 0.54
- Km [2, 9]: 880 µM
- kcat (p-nitrobenzyl loracarbef nucleus) ([3]; 0% DMF): 4.59
- Km [3, 10]: 40 µM
- kcat (p-nitrobenzyl loracarbef nucleus) ([3]; 15% DMF): 1.81
- Km [3, 9]: 870 µM
- kcat (p-nitrobenzyl loracarbef nucleus) ([4]; 0% DMF): 6.53
- Km [4, 10]: 70 µM
- kcat (p-nitrobenzyl loracarbef nucleus) ([4]; 15% DMF): 1.62
- Km [4, 9]: 400 µM
- kcat (p-nitrobenzyl loracarbef nucleus) ([5]; 0% DMF): 8.51
- Km [5, 10]: 40 µM
- kcat (p-nitrobenzyl loracarbef nucleus) ([5]; 15% DMF): 1.89
- Km [5, 9]: 310 µM
- kcat (p-nitrobenzyl loracarbef nucleus) ([6]; 0% DMF): 9.13
- Km [6, 10]: 30 µM
- kcat (p-nitrobenzyl loracarbef nucleus) ([6]; 15% DMF): 3.02
- Km [6, 9]: 370 µM
- kcat (p-nitrobenzyl loracarbef nucleus) ([7]; 0% DMF): 18.96
- Km [7, 10]: 50 µM
- kcat (p-nitrobenzyl loracarbef nucleus) ([7]; 15% DMF): 6.84
- Km [7, 9]: 460 µM
- KM change from wild type to 4-54B9 [7, 11]: decreases by less than a factor of two
- kcat increase from wild type to 4-54B9 [7, 11]: more than 9 fold
- kcat (p-nitrobenzyl loracarbef nucleus) [8]: 1.94
- Km ([8]; read-out: Km (p-nitrobenzyl loracarbef nucleus)): 40 µM

Compound: NC1C(=O)N2C(C(=O)Oc3ccc([N+](=O)[O-])cc3)=C(Cl)CCC12 (stereo not drawn) [p-nitrophenyl loracarbef nucleus]
- kcat (p-nitrophenyl loracarbef nucleus) ([1]; 15% DMF): 0.07
- Km [1, 12]: 1840 µM
- kcat (p-nitrophenyl loracarbef nucleus) ([1]; 30% DMF): 0.021
- Km [1, 13]: 6050 µM
- kcat (p-nitrophenyl loracarbef nucleus) ([2]; 0% DMF): 0.14
- Km [2, 14]: 70 µM
- kcat (p-nitrophenyl loracarbef nucleus) ([2]; 15% DMF): 0.10
- Km [2, 12]: 2360 µM
- kcat (p-nitrophenyl loracarbef nucleus) ([2]; 30% DMF): 0.024
- Km [2, 13]: 7550 µM
- kcat (p-nitrophenyl loracarbef nucleus) ([3]; 0% DMF): 0.25
- Km [3, 14]: 90 µM
- kcat (p-nitrophenyl loracarbef nucleus) ([3]; 15% DMF): 0.12
- Km [3, 12]: 1500 µM
- kcat (p-nitrophenyl loracarbef nucleus) ([3]; 30% DMF): 0.023
- Km [3, 13]: 4670 µM
- kcat (p-nitrophenyl loracarbef nucleus) ([4]; 0% DMF): 0.35
- Km [4, 14]: 110 µM
- kcat (p-nitrophenyl loracarbef nucleus) ([4]; 15% DMF): 0.21
- Km [4, 12]: 1770 µM
- kcat (p-nitrophenyl loracarbef nucleus) ([4]; 30% DMF): 0.044
- Km [4, 13]: 5180 µM
- kcat (p-nitrophenyl loracarbef nucleus) ([5]; 0% DMF): 0.39
- Km [5, 14]: 60 µM
- kcat (p-nitrophenyl loracarbef nucleus) ([5]; 15% DMF): 0.25
- Km [5, 12]: 1410 µM
- kcat (p-nitrophenyl loracarbef nucleus) ([5]; 30% DMF): 0.067
- Km [5, 13]: 5680 µM
- kcat (p-nitrophenyl loracarbef nucleus) ([6]; 0% DMF): 0.67
- Km [6, 14]: 80 µM
- kcat (p-nitrophenyl loracarbef nucleus) ([6]; 15% DMF): 0.40
- Km [6, 12]: 1270 µM
- kcat (p-nitrophenyl loracarbef nucleus) ([6]; 30% DMF): 0.094
- Km [6, 13]: 5090 µM
- kcat (p-nitrophenyl loracarbef nucleus) ([7]; 0% DMF): 1.44
- Km [7, 14]: 120 µM
- kcat (p-nitrophenyl loracarbef nucleus) ([7]; 15% DMF): 0.93
- Km [7, 12]: 1270 µM
- kcat (p-nitrophenyl loracarbef nucleus) ([7]; 30% DMF): 0.141
- Km [7, 13]: 2920 µM
- kcat (p-nitrophenyl loracarbef nucleus) [8]: 0.08
- Km ([8]; read-out: Km (p-nitrophenyl loracarbef nucleus)): 30 µM
